Among the test systems are NCI-H522 lung; COLO 205 colon; OVCAR-4 ovarian; T-47D breast; MDA-MB-435; SF-295 CNS; UACC-62 melanoma; HCC-2998 colon; U251 CNS; CAKI-1 renal.
Common to all, as to experiment: inhibition of tumour cell growth, NCI panel, 48 h

SMILES strings stand for the structures.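 Interpolation was linear, between the two tested concentrations surrounding the appropriate level; five concentrations were tested over 48 hours in 96-well plates. GI50: concentration for 50% inhibition of growth. TGI denotes the concentration required for complete inhibition of growth.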 Some results are limits rather than exact numbers.

As for `CNCCn1c(=O)c2cc(OC)c(OC)cc2c2ccc3cc4c(cc3c21)OCO4`, the GI50 in the assay with NCI-H522 lung was 0.0548 µM; in the assay with COLO 205 colon, 0.0753 µM; with OVCAR-4 ovarian, 0.175 µM; with T-47D breast it was 0.0838 µM; with MDA-MB-435, 0.131 µM; with SF-295 CNS, 0.0346 µM. For the same compound, the GI50 in the assay on UACC-62 melanoma was 0.0465 µM; in the assay with HCC-2998 colon, 0.167 µM; with U251 CNS, 0.0495 µM; with CAKI-1 renal it was 0.0718 µM. Moreover, the TGI with NCI-H522 lung was 0.554 µM; in the assay with COLO 205 colon it was 0.735 µM; in the assay on OVCAR-4 ovarian, 4.26 µM; in the assay with T-47D breast, 3.43 µM; with MDA-MB-435, 0.708 µM; in the assay with SF-295 CNS it was 0.359 µM. The TGI came to 0.145 µM in the assay with UACC-62 melanoma, 0.968 µM in the assay with HCC-2998 colon, 1.19 µM with U251 CNS and 0.588 µM in the assay with CAKI-1 renal.
As for `CCOC(=O)/C=C/C1=C(c2cccs2)c2ccccc2CC1`, the GI50 in the assay with NCI-H522 lung was 24.3 µM; in the assay on COLO 205 colon it was 17 µM; in the assay on OVCAR-4 ovarian, 38.9 µM; in the assay with T-47D breast it was 36.5 µM; with MDA-MB-435 it was 20.6 µM; with SF-295 CNS, 38.5 µM. Besides, the GI50 in the assay on UACC-62 melanoma is 18.7 µM; in the assay on HCC-2998 colon, 28.2 µM; with U251 CNS, 19.7 µM; in the assay on CAKI-1 renal, 43.1 µM. Also, the TGI was 63.6 µM with NCI-H522 lung; 46.3 µM in the assay on COLO 205 colon; greater than 100 µM in the assay on OVCAR-4 ovarian; greater than 100 µM with T-47D breast; 51.3 µM with MDA-MB-435; greater than 100 µM with SF-295 CNS. For the same compound, the TGI is 40.9 µM in the assay with UACC-62 melanoma, 64.7 µM in the assay on HCC-2998 colon, 39.6 µM with U251 CNS and greater than 100 µM in the assay with CAKI-1 renal.
Regarding `NC(N)=NCCC1OC(=O)C2=C1c1c(O)ccc3nccc(c13)O2` (stereo unspecified), the GI50 is greater than 100 µM in the assay with NCI-H522 lung; greater than 100 µM in the assay on COLO 205 colon; 95.1 µM in the assay with T-47D breast; greater than 100 µM with MDA-MB-435; greater than 100 µM with SF-295 CNS; greater than 100 µM in the assay on UACC-62 melanoma. The GI50 was greater than 100 µM in the assay with HCC-2998 colon, 56.7 µM with U251 CNS and greater than 100 µM in the assay on CAKI-1 renal. In addition, the TGI in the assay on NCI-H522 lung, with COLO 205 colon, in the assay with T-47D breast, in the assay on MDA-MB-435, in the assay with SF-295 CNS and in the assay with UACC-62 melanoma was greater than 100 µM throughout. The TGI in the assay on HCC-2998 colon, in the assay with U251 CNS and in the assay with CAKI-1 renal was greater than 100 µM each time.
In the case of `COc1cc(C(=O)Nc2cc3c(cc2Oc2cc(C)cc(C)c2)C(=O)N(C)[C@@H](CC(=O)N(C)O)C(=O)N3)c(Br)c(OC)c1OC`, the GI50 with NCI-H522 lung, in the assay on OVCAR-4 ovarian, in the assay on T-47D breast, in the assay on MDA-MB-435, in the assay with SF-295 CNS and in the assay on UACC-62 melanoma was less than 0.00333 µM throughout. For the same compound, the GI50 with HCC-2998 colon is less than 0.00333 µM; in the assay on U251 CNS it was less than 0.00333 µM; in the assay on CAKI-1 renal, 0.496 µM. In addition, the TGI is less than 0.00333 µM in the assay on NCI-H522 lung; less than 0.00333 µM with OVCAR-4 ovarian; less than 0.00333 µM in the assay with T-47D breast; 0.00351 µM with MDA-MB-435; 0.00898 µM with SF-295 CNS; less than 0.00333 µM in the assay with UACC-62 melanoma. Also, the TGI was less than 0.00333 µM with HCC-2998 colon, 0.00506 µM in the assay with U251 CNS and 2.58 µM in the assay with CAKI-1 renal.
`COc1ccc(-c2ccc(-c3ccc(C(=N)N)cn3)o2)cc1`: the GI50 in the assay with NCI-H522 lung was 6.8 µM; in the assay with COLO 205 colon it was 1.82 µM; in the assay with OVCAR-4 ovarian, 10.4 µM; in the assay on T-47D breast, 5.13 µM; in the assay with MDA-MB-435, 2.18 µM; with UACC-62 melanoma it was 10.3 µM. Also, the GI50 was 2.45 µM in the assay on HCC-2998 colon, 4.7 µM with U251 CNS and 6.79 µM with CAKI-1 renal. For the same compound, the TGI with NCI-H522 lung is 20.7 µM; in the assay with COLO 205 colon it was 3.68 µM; in the assay on OVCAR-4 ovarian, 22.1 µM; in the assay with T-47D breast it was 21 µM; in the assay on MDA-MB-435, 4.97 µM; in the assay with UACC-62 melanoma it was 22.9 µM. Further, the TGI in the assay on HCC-2998 colon came to 5.71 µM; in the assay with U251 CNS, 17.4 µM; in the assay with CAKI-1 renal, 20.7 µM.
For `Cc1c(C(=O)NCCN2CCOCC2)cn2ncnc(Oc3ccc(NC(=O)Nc4ccc(Cl)c(C(F)(F)F)c4)cc3)c12`, the GI50 was 1.76 µM in the assay on NCI-H522 lung; 2.37 µM in the assay on OVCAR-4 ovarian; 2.02 µM with T-47D breast; 1.29 µM with MDA-MB-435; 1.77 µM in the assay on SF-295 CNS; 1.34 µM in the assay on UACC-62 melanoma. Moreover, the GI50 is 2.04 µM in the assay with HCC-2998 colon, 1.79 µM in the assay with U251 CNS and 1.46 µM with CAKI-1 renal. The TGI came out at 4.23 µM in the assay with NCI-H522 lung; 5.61 µM in the assay with OVCAR-4 ovarian; 6.38 µM with T-47D breast; 2.75 µM in the assay with MDA-MB-435; 3.34 µM in the assay on SF-295 CNS; 2.84 µM with UACC-62 melanoma. Besides, the TGI in the assay on HCC-2998 colon was found to be 3.71 µM; with U251 CNS, 5.36 µM; in the assay on CAKI-1 renal, 2.92 µM.
On to `COC(=O)c1nc(Cl)nc(Cl)c1Cl`, for which the TGI in the assay with NCI-H522 lung is 36.5 µM; in the assay with COLO 205 colon, 36 µM; in the assay with OVCAR-4 ovarian, 41 µM; in the assay with T-47D breast, 54.2 µM; with MDA-MB-435, 29.3 µM; with SF-295 CNS, greater than 100 µM. For the same compound, the TGI in the assay on HCC-2998 colon was 68.3 µM; in the assay with U251 CNS it was greater than 100 µM; in the assay with CAKI-1 renal it was 32.1 µM.

The values above are taken from PubChem BioAssay (NCI).
